Read-outs that look alike come from different tables or passages of the source.

Test [1] has as its target T1, cyclooxygenase (Rattus norvegicus, UniProt Q63921).
T1 construct: Single cell suspensions of RBL-1 cells are homogenized to obtain the microsomal fraction containing lipoxygenase and cyclooxygenase; endogenous in cells; host or cells: RBL-1 (rat basophilic leukemia) cells, homogenate / microsomal fraction
T1 sequence (Q63921 27-602): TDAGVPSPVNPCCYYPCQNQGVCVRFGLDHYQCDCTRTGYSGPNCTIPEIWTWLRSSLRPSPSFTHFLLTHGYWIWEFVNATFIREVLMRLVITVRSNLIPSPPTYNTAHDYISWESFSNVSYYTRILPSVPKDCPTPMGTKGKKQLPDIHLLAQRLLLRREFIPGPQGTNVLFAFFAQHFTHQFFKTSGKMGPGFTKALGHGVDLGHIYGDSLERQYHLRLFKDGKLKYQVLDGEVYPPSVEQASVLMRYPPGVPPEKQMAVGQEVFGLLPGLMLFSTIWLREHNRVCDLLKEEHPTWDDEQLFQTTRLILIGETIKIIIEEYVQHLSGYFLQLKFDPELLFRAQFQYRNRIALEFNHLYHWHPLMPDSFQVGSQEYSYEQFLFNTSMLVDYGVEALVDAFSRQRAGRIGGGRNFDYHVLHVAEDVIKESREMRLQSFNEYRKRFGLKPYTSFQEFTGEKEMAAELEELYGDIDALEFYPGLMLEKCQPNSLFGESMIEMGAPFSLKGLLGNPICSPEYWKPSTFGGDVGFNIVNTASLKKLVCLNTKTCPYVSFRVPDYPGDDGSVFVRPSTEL
The test is described as follows: Inhibition of cyclooxygenase derived from rat basophilic leukemia (RBL-1) cells, formation of product PDG2 (C1). The test is classed as biochemical. The note with it: RBL-1 homogenate; for IC50: C1, PDG2; for inhibition at 1 µM: dose of 1 μM, 5 min preincubation, 15 min incubation at 37° C, read-out: In vitro % Inhibition, C1 (cyclooxygenase product formation). As for the experimental part: (§1) The primary screening test used is a determination of the inhibition of lipoxygenase and cyclooxygenase derived from rat basophilic leukemia (RBL-1) cells. The test was carried out according to the following procedure:
(§2) Single cell suspensions of RBL-1 cells are homogenized to obtain the microsomal fraction containing lipoxygenase and cyclooxygenase. Test compounds are added to the enzyme-containing homogenate for a 5 min preincubation period at 37° C. prior to the addition of ^14 C-arachidonic acid substrate. Following incubation at 37° C. for 15 min, the reaction is stopped by the addition of 2M formic acid and the enzyme-substrate products are extracted into chloroform. An aliquot of the extract is evaporated to dryness, reconstituted in ether to 1/10 original volume, spotted on thin layer chromatography plates and chromatographed. The peak areas of radioactivity representing the products are located by scanning the plates. The quantity of products formed is estimated by measuring the height of the radioactivity peaks observed on the chromatographic scans. Alternatively, the areas of radioactivity are scraped from the plate and the ^14 C quantitated by scintillation counting.

Test [2] deals with T2, lipoxygenase (Rattus norvegicus, UniProt P12527).
T2 construct: Single cell suspensions of RBL-1 cells are homogenized to obtain the microsomal fraction containing lipoxygenase and cyclooxygenase; endogenous in cells; host or cells: RBL-1 (rat basophilic leukemia) cells, homogenate / microsomal fraction
T2 sequence (P12527 1-673): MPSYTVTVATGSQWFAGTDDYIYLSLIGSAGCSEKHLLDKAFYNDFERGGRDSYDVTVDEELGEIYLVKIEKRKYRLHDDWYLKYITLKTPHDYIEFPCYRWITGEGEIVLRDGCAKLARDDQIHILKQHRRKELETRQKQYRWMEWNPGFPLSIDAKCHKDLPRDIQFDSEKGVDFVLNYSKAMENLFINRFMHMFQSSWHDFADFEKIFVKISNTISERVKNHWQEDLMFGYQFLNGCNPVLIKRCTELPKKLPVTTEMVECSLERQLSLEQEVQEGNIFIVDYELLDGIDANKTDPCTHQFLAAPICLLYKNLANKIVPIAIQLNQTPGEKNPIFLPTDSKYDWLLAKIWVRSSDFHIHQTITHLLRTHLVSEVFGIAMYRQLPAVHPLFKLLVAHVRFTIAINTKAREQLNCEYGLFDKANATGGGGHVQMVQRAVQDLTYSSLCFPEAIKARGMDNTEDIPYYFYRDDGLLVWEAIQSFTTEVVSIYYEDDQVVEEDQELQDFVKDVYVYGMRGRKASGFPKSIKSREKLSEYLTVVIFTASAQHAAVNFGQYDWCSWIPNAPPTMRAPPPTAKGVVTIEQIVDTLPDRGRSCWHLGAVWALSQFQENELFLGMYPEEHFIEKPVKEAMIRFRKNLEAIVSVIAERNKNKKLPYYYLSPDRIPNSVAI
The test is described as follows: Inhibition of lipoxygenase derived from rat basophilic leukemia (RBL-1) cells, formation of products 5,12-di-HETE (L1) and 5-HETE (L2). The test is classed as biochemical. The method, then: as §1, §2

In test [3] the test system is STS-A component of immunologically induced bronchoconstriction. The test is described as follows: Effect on the STS-A component of immunologically induced bronchoconstriction in guinea pigs. In kind it is in vivo. To be noted: 4 hrs., at 1 mg/kg orally, indomethacin + chlorpheniramine medicated, antigen challenge. As for the experimental part:
The test was carried out according to the following procedure:
Two weeks after immunization with egg albumin, guinea pigs are prepared for bronchoconstriction determination. One hour prior to antigen challenge, each animal is dosed orally with indomethacin and chlorpheniramine. Animals are anesthetized with sodium pentobarbital, the trachea cannulated and the animal artifically respired. Arachidonic acid is administered intravenously prior to antigen challenge. The resulting bronchoconstriction is recorded by the standard lung overflow procedure and the peak increase in intratracheal pressure (mm Hg) over a 10 minute observation period is recorded. Compounds are evaluated for their ability to prevent the increased intratracheal pressure in an experimental group of animals as compared to the medicated (indomethacin+chlorpheniramine+arachidonic acid) control group. The results are expressed in terms of percent inhibition or as ED50 values (efffective dose in 50% of the animals).

Where [4] appears, read: IC50, L1 (lipoxygenase product 5,12-di-HETE formation), L1, 5,12-di-HETE, RBL-1 homogenate.
Setting [5] is: IC50, L2 (lipoxygenase product 5-HETE formation), L2, 5-HETE, RBL-1 homogenate.
Setting [6] is: read-out: In vitro % Inhibition, L1 (lipoxygenase product 5,12-di-HETE formation).
Where [7] appears, read: read-out: In vitro % Inhibition, L2 (lipoxygenase product 5-HETE formation).

On to `CCOC(=O)c1ccccc1Nc1ccc(O)c(Cl)c1` [Example 5c, Ethyl 2-(3-chloro-4-hydroxyphenylamino)benzoate], for which the figures for the IC50 in test [1], in test [2] (setting [4]) and in test [2] (setting [5]) were over 1000 nM, 670 nM and 300 nM, respectively. The values for the inhibition at 1 µM in test [1], in test [2] (setting [6]) and in test [2] (setting [7]) were 26%, 90% and 99%, respectively.

For the molecule `CCOC(=O)c1cc(OC)ccc1Nc1ccc(O)cc1` [Example 3d, Ethyl 2-(4-hydroxyphenylamino)-5-methoxybenzoate], the IC50 in test [1] is over 1000 nM; in test [2] (setting [4]), 110 nM; in test [2] (setting [5]) it was 100 nM. Further, the inhibition at 1 µM came out at 18% in test [1], 90% in test [2] (setting [6]) and 91% in test [2] (setting [7]). Besides, the “In vivo Guinea Pig % inhib. (increased intratracheal pressure, bronchoconstriction)” value in test [3] came to 42%.

As to `CCOC(=O)c1ccccc1Nc1ccccc1O` [Example 1d, Ethyl 2-(2-hydroxyphenylamino)benzoate], the IC50 was found to be 320 nM in test [1], 160 nM in test [2] (setting [4]) and 100 nM in test [2] (setting [5]). Besides, the inhibition at 1 µM in test [1] is 34%; in test [2] (setting [6]) it was 95%; in test [2] (setting [7]), 98%.

For `CCOC(=O)c1ccccc1Nc1ccc(O)cc1C` [Example 4c, Ethyl 2-(4-hydroxy-2-methylphenylamino)benzoate], the inhibition at 1 µM came out at 0% in test [1]; 60% in test [2] (L1, 5,12-di-HETE, dose of 1 μM, RBL-1 homogenate, 5 min preincubation, 15 min incubation at 37° C, read-out: In vitro % Inhibition, L1 (lipoxygenase product 5,12-di-HETE formation)); 76% in test [2] (L2, 5-HETE, dose of 1 μM, RBL-1 homogenate, 5 min preincubation, 15 min incubation at 37° C, read-out: In vitro % Inhibition, L2 (lipoxygenase product 5-HETE formation)).

Turning to `CCOC(=O)c1ccccc1Nc1ccc(O)cc1` [Example 2b, Ethyl 2-(4-hydroxyphenylamino)benzoate], the IC50 is over 1000 nM in test [1], 340 nM in test [2] (setting [4]) and 250 nM in test [2] (setting [5]). Also, the inhibition at 1 µM in test [1] is 19%; in test [2] (setting [6]), 77%; in test [2] (setting [7]), 93%. Further, the “In vivo Guinea Pig % inhib. (increased intratracheal pressure, bronchoconstriction)” value in test [3] was found to be 38%.

Broadly, the IC50 is the concentration at which inhibition is half-maximal. Low readings indicate higher potency, high ones lower potency. Broadly, the inhibition is the relative decrease from the control value, in per cent.
